The results in this text go back to patent publication US7829728B2, “Diarymethyl and related compounds” (Theravance, Inc., priority 2003, dated 2010).

This assay has as its system guinea pigs, pilocarpine-evoked salivation. Put plainly: Inhalation guinea pig salivation assay (Assay Test Procedure H). Format: in vivo. Conditions: ratio of anti-sialagogue ID50 to bronchoprotective ID50, guinea pig. As to the method:
Guinea pigs (Charles River, Wilmington, Mass.) weighing 200-350 g are acclimated to the in-house guinea pig colony for at least 3 days following arrival. Test compound or vehicle are dosed via inhalation (IH) over a 10 minute time period in a pie shaped dosing chamber (R+S Molds, San Carlos, Calif.). Test solutions are dissolved in sterile water and delivered using a nebulizer filled with 5.0 mL of dosing solution. Guinea pigs are restrained in the inhalation chamber for 30 minutes. During this time, guinea pigs are restricted to an area of approximately 110 sq. cm. This space is adequate for the animals to turn freely, reposition themselves, and allow for grooming. […] Upon completion of nebulization, guinea pigs are evaluated at 1.5, 6, 12, 24, 48, or 72 hrs after treatment.
Guinea pigs are anesthetized one hour before testing with an intramuscular (IM) injection of a mixture of ketamine 43.75 mg/kg, xylazine 3.5 mg/kg, and acepromazine 1.05 mg/kg at an 0.88 mL/kg volume. […] Saliva is collected for 10 minutes, at which point the gauze pad is weighed and the difference in weight recorded to determine the amount of accumulated saliva (in mg). The mean amount of saliva collected for animals receiving the vehicle and each dose of test compound is calculated. […] Results are calculated using result means (n=3 or greater). […]

Structures are written as SMILES.

For the compound `NC(=O)C(c1ccccc1)(c1ccccc1)[C@@H]1CCN(CCC(=O)NCCCCCNC[C@H](O)c2ccc(O)c3[nH]c(=O)ccc23)C1` [Example 3, 3-[(S)-3-(Carbamoyldiphenylmethyl)pyrrolidin-1-yl]-N-{5-[(R)-2-hydroxy-2-(8-hydroxy-2-oxo-1,2-dihydroquinolin-5-yl)ethylamino]pentyl}propionamide], the apparent lung-selectivity index entry is given as “greater than 5”.
